According to US5332731A, “Cephalosporin derivatives” (Meiji Seika Kaisha, Ltd., priority 1989, dated 1994):
Values after ≈ are worked out from the molar mass of the structure shown.

How the values were obtained:
Assay in all cases: antibacterial activity, MIC by standard serial dilution method
Assay type in all cases: cell-based
[1] = system: Marganella morganii 1510
From the text: (§1) Antibacterial activity of Compounds Nos. 1, 3, 5, 7, 9, 11, 13, 15, 17, 19, 21, 23, 25, 27, 29, 31, 33, 35 and 37 indentified hereinbefore which are the particular examples of the new cephalosporin derivative of general formula (I) according to this invention and which are in the form of the free carboxylic acid was estimated by determining the minimum inhibitory concentrations (MIC., μg/ml) of these compounds against a variety of bacteria according to a standard serial dilution method.

[2] = system: Marganella morganii 1510/S-1
From the text: as §1

[3] = system: Serratia marcescens GN10857
From the text: as §1

[4] = system: Enterobacter hirae ATCC8043
From the text: as §1

[5] = system: Escherichia coli W3630 RGN823; settings: W3630RGN823
From the text: as §1

[6] = system: Klebsiella pneumoniae PCI602
From the text: as §1

[7] = system: Staphylococcus aureus 209P JC-1
From the text: as §1

[8] = system: Serratia marcescens No. 1
From the text: as §1

[9] = system: Citrobacter freundii GN346
From the text: as §1

[10] = system: Escherichia coli GN206
From the text: as §1

[11] = system: Klebsiella pneumoniae GN69
From the text: as §1

[12] = system: Proteus vulgaris GN76/C-1
From the text: as §1

[13] = system: Pseudomonas aeruginosa GN10362
From the text: as §1

[14] = system: Entrobacter faecalis W-73
From the text: as §1

[15] = system: Enterobacter cloacae G-0008; settings: G0008
From the text: as §1

[16] = system: Escherichia coli 255
From the text: as §1

[17] = system: Enterobacter cloacae GN7471
From the text: as §1

[18] = system: Escherichia coli NIHJ JC-2; settings: NIHJJC2
From the text: as §1

[19] = system: Escherichia coli 255/S-1; settings: 255/S1
From the text: as §1

[20] = system: Proteus vulgaris GN76
From the text: as §1

[21] = system: Citrobacter freundii GN346/16
From the text: as §1

[22] = system: Staphylococcus epidermidis ATCC14990
From the text: as §1

SMILES | MIC [1] [mg/L] | MIC [2] [mg/L] | MIC [3] [mg/L] | MIC [4] [mg/L] | MIC [5] [mg/L] | MIC [6] [mg/L] | MIC [7] [mg/L] | MIC [8] [mg/L] | MIC [9] [mg/L] | MIC [10] [mg/L] | MIC [11] [mg/L] | MIC [12] [mg/L] | MIC [13] [mg/L] | MIC [14] [mg/L] | MIC [15] [mg/L] | MIC [16] [mg/L] | MIC [17] [mg/L] | MIC [18] [mg/L] | MIC [19] [mg/L] | MIC [20] [mg/L] | also measured
Nc1nc(/C(=N/O)C(=O)NC2C(=O)N3C(C(=O)O)=C(SC4COCOC4)CS[C@H]23)cs1 (stereo partly shown) [Compound No. 21, 7 - [(Z) -2-(2-aminothiazol-4-yl) -2-hydroxyiminoacetamido]-3-(1,3-dioxan-5-yl)thio-3-cephem-4-carboxylic acid] | 12.5 (≈ 25.6 µM) | 0.1 (≈ 0.205 µM) | > 100 | 3.13 (≈ 6.42 µM) | 3.13 (≈ 6.42 µM) | 0.2 (≈ 0.41 µM) | 0.2 (≈ 0.41 µM) | 3.13 (≈ 6.42 µM) | > 100 | 6.25 (≈ 12.8 µM) | 0.2 (≈ 0.41 µM) | 12.5 (≈ 25.6 µM) | > 100 | 12.5 (≈ 25.6 µM) | 0.78 (≈ 1.6 µM) | 25 (≈ 51.3 µM) | 50 (≈ 103 µM) | 0.2 (≈ 0.41 µM) | 0.2 (≈ 0.41 µM) | 0.78 (≈ 1.6 µM) | MIC [21]: 3.13 mg/L (≈ 6.42 µM); MIC [22]: 0.2 mg/L (≈ 0.41 µM)
CO/N=C(\C(=O)NC1C(=O)N2C(C(=O)O)=C(SCC3CCCCO3)CS[C@H]12)c1csc(N)n1 (stereo partly shown) [Compound No. 23, 7-[(Z)-2-(2-aminothiazol-4-yl)-2-methoxyiminoacetamido]-3-(tetrahydropyran-2-yl)methylthio-3-cephem-4-carboxylic acid] | 50 (≈ 97.3 µM) | 0.78 (≈ 1.52 µM) | 50 (≈ 97.3 µM) | 25 (≈ 48.7 µM) | 3.13 (≈ 6.09 µM) | 3.13 (≈ 6.09 µM) | 3.13 (≈ 6.09 µM) | 1.56 (≈ 3.04 µM) | > 100 | 6.25 (≈ 12.2 µM) | 1.56 (≈ 3.04 µM) | 1.56 (≈ 3.04 µM) | 100 (≈ 195 µM) | > 100 | 3.13 (≈ 6.09 µM) | 50 (≈ 97.3 µM) | 100 (≈ 195 µM) | 3.13 (≈ 6.09 µM) | 3.13 (≈ 6.09 µM) | 0.39 (≈ 0.759 µM) | MIC [21]: 6.25 mg/L (≈ 12.2 µM); MIC [22]: 3.13 mg/L (≈ 6.09 µM)
Nc1nc(/C(=N/O)C(=O)NC2C(=O)N3C(C(=O)O)=C(SCC4CCCCO4)CS[C@H]23)cs1 (stereo partly shown) [Compound No. 25, 7-[(Z)-2-(2-aminothiazol-4-yl)-2-hydroxyiminoacetamido]-3-(tetrahydropyran-2-yl)methylthio-3-cephem-4-carboxylic acid] | 100 (≈ 200 µM) | 0.78 (≈ 1.56 µM) | > 100 | 12.5 (≈ 25 µM) | 12.5 (≈ 25 µM) | 12.5 (≈ 25 µM) | 1.56 (≈ 3.12 µM) | 6.25 (≈ 12.5 µM) | > 100 | 12.5 (≈ 25 µM) | 12.5 (≈ 25 µM) | 12.5 (≈ 25 µM) | > 100 | 12.5 (≈ 25 µM) | 25 (≈ 50 µM) | 100 (≈ 200 µM) | 100 (≈ 200 µM) | 12.5 (≈ 25 µM) | 12.5 (≈ 25 µM) | 3.13 (≈ 6.27 µM) | MIC [21]: 12.5 mg/L (≈ 25 µM); MIC [22]: 1.56 mg/L (≈ 3.12 µM)
CO/N=C(\C(=O)NC1C(=O)N2C(C(=O)O)=C(SCC3CCOC3)CS[C@H]12)c1csc(N)n1 (stereo partly shown) [Compound No. 27, 7-[(Z)-2-(2-aminothiazol-4-yl)-2-methoxyiminoacetamido]-3-(tetrahydrofuran-3-yl)methylthio-3-cephem-4-carboxylic acid] | 25 (≈ 50 µM) | 0.39 (≈ 0.781 µM) | 50 (≈ 100 µM) | > 100 | 0.78 (≈ 1.56 µM) | 0.39 (≈ 0.781 µM) | 1.56 (≈ 3.12 µM) | 3.13 (≈ 6.27 µM) | > 100 | 6.25 (≈ 12.5 µM) | 0.2 (≈ 0.4 µM) | 6.25 (≈ 12.5 µM) | > 100 | 100 (≈ 200 µM) | 0.78 (≈ 1.56 µM) | 50 (≈ 100 µM) | 50 (≈ 100 µM) | 0.78 (≈ 1.56 µM) | 0.78 (≈ 1.56 µM) | 0.2 (≈ 0.4 µM) | MIC [21]: 3.13 mg/L (≈ 6.27 µM); MIC [22]: 0.78 mg/L (≈ 1.56 µM)
